Reference: patent US5338684A, “Stable aqueous FK506 standards” (Abbott Laboratories, priority 1993, dated 1994)

Key:
[1] = assay type: physicochemical
From the text: The stability of the composition can be determined by measuring the decrease in the measured amount of FK506 in the aqueous composition with time. […] In a composition of the invention useful as a standard for a diagnostic assay, generally the amount of FK506 initially present in the aqueous composition maintained at a temperature of 37 degrees Celsius will decrease over a period of 7 days by less than 20 percent by weight, and typically by less than 5 percent by weight

[2] = assay type: physicochemical, human
Experimental: This example illustrates the utilization of blood cell fragments according to the invention to stabilize FK506 in an aqueous matrix. Human blood cells were lysed by sonication or by repetitive freeze-thaw cycles respectively. Lysis was judged complete by the absence of blood cells under microscopic examination. Except for the utilization of lysed human blood cells instead of whole blood cells, the FK506 standards were prepared in the same manner as in Example 1 above.

[3] = assay type: physicochemical, horse
Experimental: (§1) This example illustrates the suitability of non-human blood sources for a composition of the invention. In this example both sheep blood (non-lysed as in Example 1 above and containing the anti-coagulant citrate) and horse blood (lysed by freeze-thaw cycles as in Example 2 above and containing the anti-coagulant EDTA) were utilized. FK506 standards were made in each matrix and stability was evaluated at 37 degrees Celsius as described above.

[4] = assay type: physicochemical, human; remark: listed apart in the source
Experimental: This example illustrates the preparation of an aqueous composition of the invention utilizing whole human blood containing the anticoagulant, ethylenediamine tetraacetic acid (EDTA). It also illustrates a comparison of the stability of FK506 in the aqueous composition of the invention with the stability of FK506 in a synthetic blood matrix (prepared by adding hemoglobin to human serum) and with the stability of FK506 in plasma and serum
A synthetic blood matrix was prepared by adding hemoglobin (10 grams/deciliter) to human serum. A stock standard of FK506 in methanol (10 micrograms FK506/ml) was spiked into this synthetic matrix to provide two initial concentrations of 32.2 nanograms FK506/ml (ng/ml)(high) and 7.5 ng/ml (low). A composition of the invention was prepared by adding the stock standard of FK506 in methanol (10 micrograms FK506/ml) into human whole blood (containing sufficient EDTA to prevent coagulation ) to provide two initial concentrations of 47.1 ng/ml (high) and 9.3 ng/ml (low). The stability of these two different matrices was evaluated by placing the four different standards at 37 degrees Celsius and determining the concentration of FK506 present as a function of time.

[5] = assay type: physicochemical; remark: listed apart in the source
Experimental: FK506 was spiked into plasma and serum and the stability at 37 degrees Celsius was evaluated as for human blood and the synthetic matrix above. The plasma contained sufficient EDTA as anti-coagulant to prevent coagulation.
Comparative plasma and serum matrices were prepared by adding a stock standard of FK506 in methanol (10 micrograms FK506/ml) to the plasma and serum matrices to provide two initial concentrations of 41.8 ng/ml (high) and 18.4 ng/ml (low) for the plasma and two initial concentrations of 44.9 ng/ml (high) and 22.4 ng/ml (low) for the serum. As for the human blood and synthetic matrix above, the stability of these two different matrices was evaluated by placing the four different standards at 37 degrees Celsius and determining the concentration of FK506 present as a function of time.

[6] = assay type: physicochemical; remark: listed apart in the source
From the text: Whole blood has the undesirable characteristic of thickening at elevated temperatures. Thickened blood can be difficult or impossible to pipet which can make a blood matrix completely unsuitable as a standard for a diagnostic assay.
Whole blood (plus sufficient EDTA to prevent coagulation) was lysed by freeze-thaw cycles and diluted with saline so as to be at final saline concentrations of 10, 20 and 30 percent by volume. FK506 in methanol was spiked into the matrix to make standards and the stability was evaluated at 37 degrees Celsius as described above.

[7] = test system: monoclonal antibody directed against FK506 (Fujisawa clone #1-60-46); assay: Microparticle capture enzyme immunoassay (MEIA) for FK506, competitive with FK506-alkaline phosphatase conjugate; assay type: binding; details: pH 6.0
Experimental: In general an analyte such as FK506 is determined in an MEIA by quantifying the rate of fluorescence development when a fluorogenic substrate is converted by the action of an enzyme-labeled conjugate. MEIAs as run on the IMx® analyzer generally utilize a reagent pack containing microparticle reagent, an alkaline phosphatase conjugate, fluorogenic substrate and, optionally, a diluent buffer specific for the FK506 assay. Submicron microparticles coated with a capture molecule specific for FK506 being measured are used as the solid phase. […] The effective surface area of these polystyrene latex microparticles, which number in the millions, is several-fold greater than that of a 1/4 inch diameter polystyrene bead commonly used in other commercial immunoassays. Because of this large surface area and the very small diffusion distance between analyte and the capture molecules on the surface of the microparticles, the capture phase of the MEIA typically reaches equilibrium within several minutes, allowing excellent throughput.
Unlike homogeneous fluorescent polarization immunoassays, the heterogeneous MEIA requires a separation step. After incubation of the microparticles with specimen, the microparticles are separated from the reaction mixture by transferring it to an inert glass fiber matrix in the MEIA reaction cell. This glass fiber surface provides a precisely located mechanical support for the microparticles during the subsequent optical read phase of the assay. The microparticles and bound analyte adhere strongly to the glass fibers, while the remaining specimen components are washed through the pores of the matrix to an underlying absorbent blotter. Detection of the immune complex on the glass fiber matrix is accomplished using an alkaline phosphatase-labeled conjugate. Conjugate is either incubated with the specimen and microparticles in a typical one step IMx® MEIA or applied to the matrix after the initial wash step. It is contemplated that an MEIA for FK506 run on the IMx® analyzer can be configured either in a "sandwich" or competitive assay format. […]
In either configuration, the specifically bound alkaline phosphatase on the microparticles is detected by addition of a fluorogenic substrate, typically 4-methylumbelliferyl phosphate (4-MUP), to the matrix. […] The liberated 4-MU is detected by the IMx® MEIA optics assembly, a front surface fluorometer designed to detect fluorescence of low concentrations of 4-MU without interference by fluorescence of 4-MUP at 367 nanometers (nm). A system of lenses and optical filters focuses filtered light (365 nm wavelength) from a mercury arc lamp onto the surface of the matrix and focuses emitted fluorescence from 4-MU (448 nm wavelength) onto a photomultiplier tube. About 5% of the excitation light is detected by a photodiode, allowing normalization of the fluorescence data and generation of a control signal used by the lamp power supply to maintain the intensity of the excitation light within 5% over the useful life of the lamp. The instrument then uses linear regression analysis to convert the data from 8 successive determinations of 4-MU fluorescence to a rate, which rate is proportional to the concentration of alkaline phosphatase conjugate specifically bound to the microparticles, from which the concentration of FK506 in the sample can be determined. […]

[8] = assay type: physicochemical, human; remark: listed apart in the source
From the text: This example illustrates the utilization of human packed red blood cells (with EDTA as anticoagulant) and saline in an aqueous, FK506-containing composition of the invention. It also illustrates the enhanced stability of FK506 in this composition of the invention compared to the stability of FK506 in comparative serum and plasma compositions.
Human packed red blood cells (with sufficient EDTA added to prevent coagulation) were mixed in equal parts by volume with saline (0.9 percent by weight sodium chloride solution), human plasma or human serum. Three freeze-thaw cycles were done on each matrix combination to lyse the cells. The pH on each matrix was adjusted to pH 6.0 with 3 Molar (M) citric acid. FK506 standards were made in each matrix and stability at […] was evaluated as described above.

[9] = assay type: physicochemical, sheep
Experimental: as §1

[10] = aqueous blood cell composition, 168 h

C=CC[C@@H]1/C=C(\C)C[C@H](C)C[C@H](OC)[C@H]2O[C@@](O)(C(=O)C(=O)N3CCCC[C@H]3C(=O)O[C@H](/C(C)=C/[C@@H]3CC[C@@H](O)[C@H](OC)C3)[C@H](C)[C@@H](O)CC1=O)[C@H](C)C[C@@H]2OC [FK506]
stability at acidic pH [1]: enhanced somewhat at acidic pH
stability in aqueous matrices [1]: unstable
decrease of the amount of FK506 initially present, generally [1, 10]: less than 20 percent by weight
decrease of the amount of FK506 initially present, typically [1, 10]: less than 5 percent by weight
stability in lysed blood [2]: more stable at 45 degrees Celsius than FK506 standards in serum, plasma or synthetic blood at 37 degrees Celsius
stability in horse blood [3]: excellent stability
stability in blood vs synthetic matrix [4]: much more stable in blood than in the synthetic matrix
stability in plasma [5]: very unstable in plasma and serum
stability in serum [5]: very unstable in plasma and serum
stability in saline-diluted lysed blood [6]: good stability
Fluorescent Rate ([7]; 10 ng/ml FK506 in lysed human whole blood): 288
Fluorescent Rate ([7]; 20 ng/ml FK506 in lysed human whole blood): 197
Fluorescent Rate ([7]; 30 ng/ml FK506 in lysed human whole blood): 150
Fluorescent Rate ([7]; 50 ng/ml FK506 in lysed human whole blood): 111
Fluorescent Rate ([7]; 80 ng/ml FK506 in lysed human whole blood): 79
stability in packed red cell matrices [8]: more stable in any of them relative to serum, plasma or synthetic blood matrices
most stable matrix ([8]; saline vs plasma or serum dilution, 45 degrees Celsius): the most stable matrix was blood diluted with saline
stability in sheep blood [9]: excellent stability
